Assay results from patent US20250276081A1, “Mucin-Active Proteases and Methods of Use” (priority 2022, published 2025).

Assays:
[1] = molecular target: T1, cell surface MUC1 on HeLa cells (Homo sapiens, UniProt P15941); assay: In cellulo MUC1 cleavage activity assay; assay type: cell-based
T1 construct: subjected to flow cytometry for cell surface MUC1; endogenous in cells; host or cells: HeLa
Protocol: Combinations of domain deletions and single point mutations yielded a total of eleven mutants for characterization, with expression yields ranging from 20-100 mg/L (Methods and FIG. 15B). In vitro activity against recombinant mucin substrates was quantified by densitometry following SDS-PAGE (FIG. 2b-c and FIG. 15C). […] To determine effective dissociation constants (Kd) of the mutants, cells were treated with the same concentrations of enzymes for 30 mins at 4° C. in the presence of the metal chelator and metalloprotease inhibitor EDTA, to prevent enzyme activity. In the latter case, binding was quantified via interaction of an anti-His tag antibody with the His-tagged mutants (FIG. 2d,g-h and FIG. 15f-g).
In cellulo MUC1 cleavage activity assay. Hela cells resuspended at 4.5-5.0×10^5 cells in 150 μL of complete media were allocated per well to a 96-well ultra-low attachment round bottom plate (Corning). 50 μL of the different StcE mutants in PBS were added to the wells, and the plate was incubated at 37° C. for 1 h. […] For data analysis, the Alexa Fluor 647 mean fluorescence intensity of unstained and PBS-treated samples were used to define 0% and 100% cell surface MUC1, respectively, and each sample was normalized to percent MUC1 within each replicate. […]

[2] = system: mucins in plasma and tissues; assay: In vivo mucin degradation Western blot after StcE; parameters: species or system mouse; conditions: 0.25 mg/kg
[3] = system: Siglec-7 ligand (K562, CCRF-CEM, CCRF-HSB-2 cells); assay: Siglec-7-Fc flow cytometry of leukemia cell lines; assay type: cell-based; conditions: 50 nM StcE, 1 h
Protocol: CD43 and Siglec-7-Fc flow cytometry. 1×10^6 K562, CCRF-CEM, or CCRF-HSB-2 cells growing in log phase were harvested, resuspended in 1 mL of serum-free RPMI, and treated with either vehicle or 50 nM StcE for 1 h. Cells were subsequently spun down at 600× g and washed twice in PBS. Cells were then resuspended in FACS buffer (0.5% BSA in PBS) at 1×10^6 cells/mL and aliquoted into a V-bottom 96-well plate (Corning) at 1×10^5 cells/well. For staining, a precomplex solution of 1 μg/mL Siglec-7-Fc (R&D Systems) and 1 μg/mL Alexa Fluor 488-antihFc was made up in FACS buffer and incubated on ice for 1 h. Alexa Fluor 647 CD43/sialophorin antibody (MEM-59 clone) (Novus Biologicals) was subsequently added to the precomplex solution prior to staining. Cells were stained in 100 μL of staining solution for 30 min, washed twice with FACS buffer, and analyzed by flow cytometry using a BD Accuri C6 plus.

[4] = system: mixed MCF10A^MUC1,±HER2 cells; assay: Mixed cell suspension survival assay under anchorage-free conditions; assay type: cell-based; conditions: 1 nM, 72 h
Protocol: For mixed cell assays, MUC1ΔCT was induced with 200 ng/ml doxycycline for 24 h. A 1:1 mixture of 2.5×10^5 MCF10A^MUC1 and MCF10AMUC1, HER2 cells were seeded per well in a 24-well ultra-low attachment plate in 0.80 mL of complete media. 200 ng/ml doxycycline, 1 nM StcE, and 1 nM αHER2-eStcE were added as appropriate. The plate was incubated at 37° C., 5% CO2, 125 rpm. At t=0, 24, 48, and 72 h, cells were spun down at 350× g for 5 min, resuspended in 100 μL of PBS with 0.1% benzonase, and incubated at room temperature for 15 min. Cells were then resuspended in 200 μL of enzyme-free cell dissociation buffer and stained with Alexa Fluor 647 anti-human CD340 (erbB2/HER-2) antibody (24D2 clone) (BioLegend) and 500 nM Sytox Green Nucleic Acid Stain (Thermo Fisher Scientific) for 20 min at 4° C., according to manufacturer recommendations, prior to analysis using a BD Accuri C6 plus. All flow cytometry data were analyzed using FlowJo v. 10.0 (TreeStar).

[5] = system: MCF10A cells expressing MUC1 ectodomain; assay: MCF10A^MUC1 suspension survival assay; assay type: cell-based
Protocol: MCF10A^MUC1 suspension survival assay. MCF10A cells expressing a cytoplasmic truncation 5 of MUC1 (MUC1ΔCT, also referred to as MUC1 ectodomain) were used to limit any possible cytoplasmic signaling^1. MUC1ΔCT was induced with 200 ng/ml doxycycline for 24 h. Uninduced and induced cells were seeded at 3×10^5 cells/well in a 24-well ultra-low attachment plate (Corning) in 0.75 mL of complete media. 200 ng/mL doxycycline and 10 nM StcE were added as appropriate. The plate was incubated at 37° C., 5% CO2, 125 rpm. At t=0, 24, 48, and 72 h, cells were spun down at 350×g for 5 min, resuspended in 200 μL of phosphate-buffered saline (PBS) with 0.1% benzonase (Sigma-Aldrich), and incubated at room temperature for 15 min. Cells were then resuspended in 200 μL of enzyme-free cell dissociation buffer (Thermo Fisher Scientific) and stained with 100 nM Calcein AM (Thermo Fisher Scientific) and 5 nM Sytox Red Dead Cell Stain (Thermo Fisher Scientific) for 20 min at 4° C., prior to analysis using a BD Accuri C6 plus. Videos of MCF10A^MUC1 cells freshly seeded on standard tissue culture plates (Corning) and treated with and without 1 nM StcE were generated with images taken at 30 min intervals for 18 h using an Incucyte. The Incucyte was set to 37° C. and 5% CO2, and cells were incubated in complete media with 200 ng/ml doxycycline.

[6] = In vivo biodistribution of IRdye 800CW-labeled StcE; conditions: 0.25 mg/kg I.P.

T1 sequence (P15941 24-1255): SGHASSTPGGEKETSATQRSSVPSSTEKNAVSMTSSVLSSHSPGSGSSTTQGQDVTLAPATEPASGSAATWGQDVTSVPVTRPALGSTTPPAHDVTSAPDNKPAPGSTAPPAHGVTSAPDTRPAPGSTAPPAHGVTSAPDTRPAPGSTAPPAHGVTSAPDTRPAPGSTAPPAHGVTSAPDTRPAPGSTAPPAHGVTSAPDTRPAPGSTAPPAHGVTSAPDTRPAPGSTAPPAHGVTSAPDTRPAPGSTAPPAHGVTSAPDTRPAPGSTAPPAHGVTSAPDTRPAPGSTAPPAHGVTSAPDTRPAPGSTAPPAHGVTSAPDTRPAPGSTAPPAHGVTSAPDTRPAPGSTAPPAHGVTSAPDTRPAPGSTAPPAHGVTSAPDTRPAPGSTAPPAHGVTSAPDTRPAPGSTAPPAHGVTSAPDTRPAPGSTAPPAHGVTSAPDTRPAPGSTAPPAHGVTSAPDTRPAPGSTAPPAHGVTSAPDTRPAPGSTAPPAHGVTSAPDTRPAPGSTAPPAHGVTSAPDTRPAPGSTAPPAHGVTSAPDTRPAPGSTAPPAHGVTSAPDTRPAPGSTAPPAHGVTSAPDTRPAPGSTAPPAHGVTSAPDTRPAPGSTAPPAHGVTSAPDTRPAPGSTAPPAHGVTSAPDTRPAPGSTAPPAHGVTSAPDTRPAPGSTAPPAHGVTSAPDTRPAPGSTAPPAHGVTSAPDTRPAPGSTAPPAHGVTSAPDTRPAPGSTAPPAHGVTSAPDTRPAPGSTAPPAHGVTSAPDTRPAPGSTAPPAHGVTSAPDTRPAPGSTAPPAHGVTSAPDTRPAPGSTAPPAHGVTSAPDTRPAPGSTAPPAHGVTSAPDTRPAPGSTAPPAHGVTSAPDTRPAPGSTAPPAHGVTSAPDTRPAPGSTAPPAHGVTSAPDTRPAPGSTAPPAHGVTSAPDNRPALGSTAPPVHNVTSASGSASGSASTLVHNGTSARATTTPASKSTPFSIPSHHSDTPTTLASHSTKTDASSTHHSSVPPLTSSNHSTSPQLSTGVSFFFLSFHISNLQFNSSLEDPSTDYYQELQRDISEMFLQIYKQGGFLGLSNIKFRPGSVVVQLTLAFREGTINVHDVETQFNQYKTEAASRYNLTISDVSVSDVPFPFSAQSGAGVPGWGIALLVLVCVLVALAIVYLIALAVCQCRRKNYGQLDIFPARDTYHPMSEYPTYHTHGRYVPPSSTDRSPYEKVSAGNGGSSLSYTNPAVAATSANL

Substance: StcE: secreted protease of C1 esterase inhibitor, zinc metalloprotease pan mucinase from E. coli O157:H7; SEQ ID NO:1
- Concentration at which the enzyme is active [1]: single digit nanomolar
- Digestion of mucins in plasma and tissues [2]: digested mucins throughout the body
- Siglec-7 ligand residency [3]: loss of cell surface CD43 and overall Siglec-7 ligand residency
- Suspension survival in mixed HER2^+ and HER2- populations [4]: cell death in both populations
- Viability of MUC1-overexpressing cells under anchorage-free conditions ([5]; 10 nM StcE, ultralow attachment plates, over 72 h): rapid cell death
- Toxicity to MUC1-expressing cells in standard tissue culture plates ([5]; nanomolar doses (1 nM StcE)): low toxicity
- Time remaining in circulation [6]: at least 20 hours
